# According to PubChem BioAssay (NCI):
#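 The compound was tested at five concentrations on cells cultured in 96-well plates, with a 48-hour exposure period. TGI marks complete inhibition of growth.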
# Columns and labels:
# Assay in all cases: growth of human tumour cells (NCI), 48 h
# M19-MEL melanoma = tested on: M19-MEL melanoma
# EKVX NSCLC = tested on: EKVX NSCLC
# OVCAR-3 ovarian = tested on: OVCAR-3 ovarian
# KM12 colon = tested on: KM12 colon
# UACC-257 melanoma = tested on: UACC-257 melanoma
# OVCAR-4 ovarian = tested on: OVCAR-4 ovarian
# HCC-2998 colon = tested on: HCC-2998 colon
# U251 CNS = tested on: U251 CNS
# LOX IMVI melanoma = tested on: LOX IMVI melanoma
# M14 melanoma = tested on: M14 melanoma
# SK-MEL-2 melanoma = tested on: SK-MEL-2 melanoma
# NCI-H460 lung = tested on: NCI-H460 lung
# A498 renal = tested on: A498 renal
# OVCAR-5 ovarian = tested on: OVCAR-5 ovarian
# HCT-116 colon = tested on: HCT-116 colon
# TK-10 renal = tested on: TK-10 renal
# 786-0 renal = tested on: 786-0 renal
# SNB-19 CNS = tested on: SNB-19 CNS
# CAKI-1 renal = tested on: CAKI-1 renal
# CCRF-CEM leukemia = tested on: CCRF-CEM leukemia
# SK-OV-3 ovarian = tested on: SK-OV-3 ovarian
# A549 NSCLC = tested on: A549 NSCLC
# HOP-62 NSCLC = tested on: HOP-62 NSCLC
# UACC-62 melanoma = tested on: UACC-62 melanoma
# SF-295 CNS = tested on: SF-295 CNS
# UO-31 renal = tested on: UO-31 renal
# DLD-1 colon = tested on: DLD-1 colon
# SF-539 CNS = tested on: SF-539 CNS
# SK-MEL-28 melanoma = tested on: SK-MEL-28 melanoma
# MALME-3M melanoma = tested on: MALME-3M melanoma
# SK-MEL-5 melanoma = tested on: SK-MEL-5 melanoma
# RXF-631 renal = tested on: RXF-631 renal
# HCT-15 colon = tested on: HCT-15 colon
# XF 498 CNS = tested on: XF 498 CNS
# SF-268 CNS = tested on: SF-268 CNS
# NCI-H23 lung = tested on: NCI-H23 lung
# MOLT-4 leukemia = tested on: MOLT-4 leukemia
# COLO 205 colon = tested on: COLO 205 colon
# NCI-H522 lung = tested on: NCI-H522 lung
# SNB-78 CNS = tested on: SNB-78 CNS
# K-562 leukemia = tested on: K-562 leukemia
# HL-60(TB) leukemia = tested on: HL-60(TB) leukemia
# SW-620 colon = tested on: SW-620 colon
# SNB-75 CNS = tested on: SNB-75 CNS
# KM20L2 colon = tested on: KM20L2 colon
# LXFL 529 NSCLC = tested on: LXFL 529 NSCLC
# DMS 273 small cell lung = tested on: DMS 273 small cell lung
# ACHN renal = tested on: ACHN renal
# RXF 393 renal = tested on: RXF 393 renal
# HOP-18 NSCLC = tested on: HOP-18 NSCLC
# IGROV1 ovarian = tested on: IGROV1 ovarian
# RPMI-8226 leukemia = tested on: RPMI-8226 leukemia
# HOP-92 NSCLC = tested on: HOP-92 NSCLC
# SN12C renal = tested on: SN12C renal
# OVCAR-8 ovarian = tested on: OVCAR-8 ovarian
# DMS 114 small cell lung = tested on: DMS 114 small cell lung
# MDA-N = tested on: MDA-N
# MDA-MB-435 = tested on: MDA-MB-435
# HS 578T breast = tested on: HS 578T breast
# SR leukemia = tested on: SR leukemia
# PC-3 prostate = tested on: PC-3 prostate
# DU-145 prostate = tested on: DU-145 prostate
# NCI-H226 lung = tested on: NCI-H226 lung
# HT29 colon = tested on: HT29 colon
# T-47D breast = tested on: T-47D breast
# MCF7 breast = tested on: MCF7 breast
# NCI/ADR-RES ovarian = tested on: NCI/ADR-RES ovarian
# BT-549 breast = tested on: BT-549 breast
# MDA-MB-231 breast = tested on: MDA-MB-231 breast
smiles,measurement,setting,value
CC1CC(C2=CC=CCS2)=Nc2ccccc2S1 (stereo not given),TGI,M19-MEL melanoma,> 100 µM
same,TGI,EKVX NSCLC,> 100 µM
same,TGI,OVCAR-3 ovarian,> 100 µM
same,TGI,KM12 colon,> 100 µM
same,TGI,UACC-257 melanoma,> 100 µM
same,TGI,OVCAR-4 ovarian,> 100 µM
same,TGI,HCC-2998 colon,> 100 µM
same,TGI,U251 CNS,> 100 µM
same,TGI,LOX IMVI melanoma,> 100 µM
same,TGI,M14 melanoma,> 100 µM
same,TGI,SK-MEL-2 melanoma,> 100 µM
same,TGI,NCI-H460 lung,> 100 µM
same,TGI,A498 renal,> 100 µM
same,TGI,OVCAR-5 ovarian,> 100 µM
same,TGI,HCT-116 colon,> 100 µM
same,TGI,TK-10 renal,> 100 µM
same,TGI,786-0 renal,> 100 µM
same,TGI,SNB-19 CNS,> 100 µM
same,TGI,CAKI-1 renal,> 100 µM
same,TGI,CCRF-CEM leukemia,> 100 µM
same,TGI,SK-OV-3 ovarian,> 100 µM
same,TGI,A549 NSCLC,> 100 µM
same,TGI,HOP-62 NSCLC,> 100 µM
same,TGI,UACC-62 melanoma,> 100 µM
same,TGI,SF-295 CNS,> 100 µM
same,TGI,UO-31 renal,> 100 µM
same,TGI,DLD-1 colon,> 100 µM
same,TGI,SF-539 CNS,> 100 µM
same,TGI,SK-MEL-28 melanoma,> 100 µM
same,TGI,MALME-3M melanoma,> 100 µM
same,TGI,SK-MEL-5 melanoma,> 100 µM
same,TGI,RXF-631 renal,> 100 µM
same,TGI,HCT-15 colon,> 100 µM
same,TGI,XF 498 CNS,> 100 µM
same,TGI,SF-268 CNS,> 100 µM
same,TGI,NCI-H23 lung,> 100 µM
same,TGI,MOLT-4 leukemia,> 100 µM
same,TGI,COLO 205 colon,> 100 µM
same,TGI,NCI-H522 lung,> 100 µM
same,TGI,SNB-78 CNS,> 100 µM
same,TGI,K-562 leukemia,> 100 µM
same,TGI,HL-60(TB) leukemia,> 100 µM
same,TGI,SW-620 colon,> 100 µM
same,TGI,SNB-75 CNS,78.6 µM
same,TGI,KM20L2 colon,> 100 µM
same,TGI,LXFL 529 NSCLC,> 100 µM
same,TGI,DMS 273 small cell lung,> 100 µM
same,TGI,ACHN renal,> 100 µM
same,TGI,RXF 393 renal,> 100 µM
same,TGI,HOP-18 NSCLC,> 100 µM
same,TGI,IGROV1 ovarian,> 100 µM
same,TGI,RPMI-8226 leukemia,> 100 µM
same,TGI,HOP-92 NSCLC,> 100 µM
same,TGI,SN12C renal,> 100 µM
same,TGI,OVCAR-8 ovarian,> 100 µM
COC(=O)[C@@]12C(=O)C=CC(=O)[C@@H]1C1C(=CC2COC(C)=O)O[C@@H]2OC3(CCCCC3)O[C@H]12 (stereo not given in full),TGI,M19-MEL melanoma,29.6 µM
same,TGI,DMS 114 small cell lung,13.5 µM
same,TGI,MDA-N,25.1 µM
same,TGI,EKVX NSCLC,32.8 µM
same,TGI,OVCAR-3 ovarian,17.1 µM
same,TGI,KM12 colon,26.5 µM
same,TGI,MDA-MB-435,29.8 µM
same,TGI,UACC-257 melanoma,30.3 µM
same,TGI,OVCAR-4 ovarian,19.7 µM
same,TGI,HCC-2998 colon,30.4 µM
same,TGI,U251 CNS,29.2 µM
same,TGI,LOX IMVI melanoma,24.6 µM
same,TGI,M14 melanoma,30.1 µM
same,TGI,HS 578T breast,31.6 µM
same,TGI,SK-MEL-2 melanoma,37.3 µM
same,TGI,NCI-H460 lung,32.9 µM
same,TGI,A498 renal,37.4 µM
same,TGI,OVCAR-5 ovarian,30.7 µM
same,TGI,HCT-116 colon,15.5 µM
same,TGI,TK-10 renal,20.6 µM
same,TGI,786-0 renal,18.7 µM
same,TGI,SR leukemia,> 100 µM
same,TGI,PC-3 prostate,25.3 µM
same,TGI,SNB-19 CNS,29.8 µM
same,TGI,CAKI-1 renal,25.4 µM
same,TGI,CCRF-CEM leukemia,17 µM
same,TGI,SK-OV-3 ovarian,30 µM
same,TGI,A549 NSCLC,22.4 µM
same,TGI,DU-145 prostate,32.2 µM
same,TGI,HOP-62 NSCLC,35 µM
same,TGI,UACC-62 melanoma,25.9 µM
same,TGI,SF-295 CNS,29.7 µM
same,TGI,UO-31 renal,28.3 µM
same,TGI,DLD-1 colon,22.7 µM
same,TGI,SF-539 CNS,24.7 µM
same,TGI,SK-MEL-28 melanoma,32.7 µM
same,TGI,MALME-3M melanoma,30.2 µM
same,TGI,SK-MEL-5 melanoma,32.5 µM
same,TGI,RXF-631 renal,50 µM
same,TGI,NCI-H226 lung,32.4 µM
same,TGI,HCT-15 colon,18.7 µM
same,TGI,HT29 colon,19.3 µM
same,TGI,XF 498 CNS,26.3 µM
same,TGI,SF-268 CNS,23.7 µM
same,TGI,NCI-H23 lung,35.9 µM
same,TGI,MOLT-4 leukemia,21 µM
same,TGI,COLO 205 colon,18.4 µM
same,TGI,T-47D breast,13.2 µM
same,TGI,NCI-H522 lung,6.29 µM
same,TGI,SNB-78 CNS,51 µM
same,TGI,MCF7 breast,32.3 µM
same,TGI,K-562 leukemia,43.8 µM
same,TGI,HL-60(TB) leukemia,> 25.6 µM
same,TGI,SW-620 colon,12.1 µM
same,TGI,SNB-75 CNS,26.4 µM
same,TGI,KM20L2 colon,31.8 µM
same,TGI,LXFL 529 NSCLC,15 µM
same,TGI,DMS 273 small cell lung,23.6 µM
same,TGI,ACHN renal,23.9 µM
same,TGI,RXF 393 renal,23.4 µM
same,TGI,HOP-18 NSCLC,24.9 µM
same,TGI,NCI/ADR-RES ovarian,28.7 µM
same,TGI,IGROV1 ovarian,31.6 µM
same,TGI,RPMI-8226 leukemia,22.7 µM
same,TGI,HOP-92 NSCLC,21.2 µM
same,TGI,SN12C renal,29.1 µM
same,TGI,OVCAR-8 ovarian,20 µM
same,TGI,BT-549 breast,26 µM
same,TGI,MDA-MB-231 breast,39.9 µM
CC(C)/C=C1\CCC(CN2CCCC2)C1=O (stereo not given),TGI,M19-MEL melanoma,> 60.4 µM
same,TGI,DMS 114 small cell lung,34.5 µM
same,TGI,EKVX NSCLC,40 µM
same,TGI,OVCAR-3 ovarian,31.8 µM
same,TGI,KM12 colon,23.1 µM
same,TGI,UACC-257 melanoma,33.9 µM
same,TGI,OVCAR-4 ovarian,32.5 µM
same,TGI,HCC-2998 colon,34.2 µM
same,TGI,U251 CNS,21 µM
same,TGI,LOX IMVI melanoma,42.3 µM
same,TGI,M14 melanoma,24.2 µM
same,TGI,SK-MEL-2 melanoma,37.7 µM
same,TGI,NCI-H460 lung,> 79.7 µM
same,TGI,A498 renal,> 59 µM
same,TGI,OVCAR-5 ovarian,35.2 µM
same,TGI,HCT-116 colon,20.9 µM
same,TGI,TK-10 renal,24.7 µM
same,TGI,786-0 renal,4.8 µM
same,TGI,SR leukemia,8.09 µM
same,TGI,SNB-19 CNS,> 64.2 µM
same,TGI,CAKI-1 renal,10.2 µM
same,TGI,CCRF-CEM leukemia,17.3 µM
same,TGI,SK-OV-3 ovarian,> 100 µM
same,TGI,A549 NSCLC,20.1 µM
same,TGI,HOP-62 NSCLC,> 100 µM
same,TGI,UACC-62 melanoma,47.4 µM
same,TGI,SF-295 CNS,> 94.5 µM
same,TGI,UO-31 renal,32.5 µM
same,TGI,DLD-1 colon,10.4 µM
same,TGI,SF-539 CNS,35.6 µM
same,TGI,SK-MEL-28 melanoma,32.9 µM
same,TGI,MALME-3M melanoma,17.1 µM
same,TGI,SK-MEL-5 melanoma,33.2 µM
same,TGI,NCI-H226 lung,49.6 µM
same,TGI,HCT-15 colon,18.3 µM
same,TGI,HT29 colon,25.6 µM
same,TGI,XF 498 CNS,31.5 µM
same,TGI,SF-268 CNS,43.6 µM
same,TGI,NCI-H23 lung,33.8 µM
same,TGI,MOLT-4 leukemia,14.9 µM
same,TGI,COLO 205 colon,18.1 µM
same,TGI,NCI-H522 lung,3.71 µM
same,TGI,SNB-78 CNS,51.2 µM
same,TGI,K-562 leukemia,11.9 µM
same,TGI,HL-60(TB) leukemia,14.4 µM
same,TGI,SW-620 colon,7.94 µM
same,TGI,KM20L2 colon,36 µM
same,TGI,LXFL 529 NSCLC,10.1 µM
same,TGI,ACHN renal,32.2 µM
same,TGI,RXF 393 renal,29.7 µM
same,TGI,HOP-18 NSCLC,17.3 µM
same,TGI,IGROV1 ovarian,> 62.5 µM
same,TGI,RPMI-8226 leukemia,3.5 µM
same,TGI,HOP-92 NSCLC,36.1 µM
same,TGI,SN12C renal,34.8 µM
same,TGI,OVCAR-8 ovarian,16.5 µM
